# “And” between values parts separate entries of the source, which are not always exact repeats. Equal values may be shown once. Toxic doses and inconclusive results are not listed.
# System: CD2F1 mice, L1210 leukemia ip, survival T/C
# Assay: NCI In Vivo Anticancer Drug Screen. Data for tumor model L1210 Leukemia (intraperitoneal) in CD2F1 (CDF1) mice
# Settings: higher = longer survival
# Summary of the method: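 Each value reflects a quotient of treated over vehicle control outcomes in mice with a transplanted tumor.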
# [1] = endpoint: mean survival time, dose: 100.0 mg/kg/injection, schedule: Q04DX002 (ip), vehicle: saline with Tween-80
# [2] = endpoint: mean survival time, dose: 200.0 mg/kg/injection, schedule: Q04DX002 (ip), vehicle: saline with Tween-80
# [3] = endpoint: mean survival time, dose: 400.0 mg/kg/injection, schedule: Q04DX002 (ip), vehicle: saline with Tween-80
# [4] = endpoint: mean survival time, dose: 100.0 mg/kg/injection, schedule: Q01DX001 (ip), vehicle: saline with Tween-80
# [5] = endpoint: mean survival time, dose: 400.0 mg/kg/injection, schedule: Q01DX001 (ip), vehicle: saline with Tween-80
# [6] = endpoint: mean survival time, dose: 100.0 mg/kg/injection, schedule: Q01DX009 (ip), vehicle: saline with Tween-80
# [7] = endpoint: mean survival time, dose: 100.0 mg/kg/injection, schedule: Q04DX003 (ip), vehicle: saline with Tween-80
# [8] = endpoint: mean survival time, dose: 200.0 mg/kg/injection, schedule: Q01DX009 (ip), vehicle: saline with Tween-80
# [9] = endpoint: mean survival time, dose: 200.0 mg/kg/injection, schedule: Q04DX003 (ip), vehicle: saline with Tween-80
# [10] = endpoint: mean survival time, dose: 400.0 mg/kg/injection, schedule: Q04DX003 (ip), vehicle: saline with Tween-80
# [11] = endpoint: mean survival time, dose: 200.0 mg/kg/injection, schedule: Q01DX001 (ip), vehicle: saline with Tween-80
# [12] = endpoint: mean survival time, dose: 50.0 mg/kg/injection, schedule: Q01DX009 (ip), vehicle: saline with Tween-80
# [13] = endpoint: mean survival time, dose: 100.0 mg/kg/injection, schedule: Q01DX001 (ip), vehicle: saline
# [14] = endpoint: mean survival time, dose: 200.0 mg/kg/injection, schedule: Q01DX001 (ip), vehicle: saline
compound,measurement,setting,value
CSc1nn(C2OC(CO)C(O)C2O)c(=O)[nH]c1=O (configuration not stated),T/C,"endpoint: mean survival time, dose: 12.5 mg/kg/injection, schedule: Q01DX005 (ip), vehicle: distilled water + Tween-80",102 % of control
same,T/C,"endpoint: mean survival time, dose: 25.0 mg/kg/injection, schedule: Q01DX005 (ip), vehicle: distilled water + Tween-80",95 % of control
same,T/C,"endpoint: mean survival time, dose: 50.0 mg/kg/injection, schedule: Q01DX005 (ip), vehicle: distilled water + Tween-80",98 % of control
same,T/C,"endpoint: mean survival time, dose: 100.0 mg/kg/injection, schedule: Q01DX005 (ip), vehicle: distilled water + Tween-80",102 % of control
same,T/C,"endpoint: mean survival time, dose: 200.0 mg/kg/injection, schedule: Q01DX005 (ip), vehicle: distilled water + Tween-80",104 % of control
Cc1cc(O)cc(=O)o1,T/C,"endpoint: mean survival time, dose: 200.0 mg/kg/injection, schedule: Q01DX001 (ip), vehicle: other",93 % of control
same,T/C,"endpoint: mean survival time, dose: 400.0 mg/kg/injection, schedule: Q01DX001 (ip), vehicle: other",105 % of control
CC(=O)CCC(=O)C1SCCS1,T/C,[1],101 % of control
same,T/C,[2],97 % of control
same,T/C,[3],101 % of control
O=S(=O)(Nc1c(Cl)c(Cl)c(NS(=O)(=O)c2ccccc2)c(Cl)c1Cl)c1ccccc1,T/C,"endpoint: mean survival time, dose: 100.0 mg/kg/injection, schedule: Q04DX003 (ip), vehicle: Klucel (hydroxypropylcellulose) (HPC)",98 % of control
same,T/C,"endpoint: mean survival time, dose: 200.0 mg/kg/injection, schedule: Q04DX003 (ip), vehicle: Klucel (hydroxypropylcellulose) (HPC)",91 % of control
same,T/C,"endpoint: mean survival time, dose: 400.0 mg/kg/injection, schedule: Q04DX003 (ip), vehicle: Klucel (hydroxypropylcellulose) (HPC)",103 % of control
CC(C)(CNC1CCCCC1)OC(=O)c1ccccc1,T/C,"endpoint: mean survival time, dose: 75.0 mg/kg/injection, schedule: Q01DX001 (ip), vehicle: saline",105 % of control
same,T/C,"endpoint: mean survival time, dose: 150.0 mg/kg/injection, schedule: Q01DX001 (ip), vehicle: saline",100 % of control
N#Cc1ccccc1NN=NCc1ccccc1,T/C,[4],97 % of control
same,T/C,[5],90 % of control
CC1=C(N2CC2)C(=O)C2=C(C1=O)N1CC3C(N3C)C1(O)C2COC(N)=O (configuration not stated),T/C,"endpoint: mean survival time, dose: 3.5 mg/kg/injection, schedule: Q01DX001 (ip), vehicle: carboxymethylcellulose (CMC)",122 % of control
same,T/C,"endpoint: mean survival time, dose: 5.25 mg/kg/injection, schedule: Q01DX001 (ip), vehicle: carboxymethylcellulose (CMC)",151 % of control
same,T/C,"endpoint: mean survival time, dose: 7.0 mg/kg/injection, schedule: Q01DX001 (ip), vehicle: carboxymethylcellulose (CMC)",119 % of control
COc1ccccc1NC(=O)Oc1cccc(OC(=O)c2ccccc2)c1,T/C,[1],96 % of control
same,T/C,[2],103 % of control
same,T/C,[3],88 % of control
O=C(O)c1ccccc1C(=O)NCCc1c[nH]c2ccccc12,T/C,[6],104 % of control
same,T/C,[7],96 % of control
same,T/C,[8],96 % of control
same,T/C,[9],96 % of control
same,T/C,"endpoint: mean survival time, dose: 400.0 mg/kg/injection, schedule: Q01DX009 (ip), vehicle: saline with Tween-80",102 % of control
same,T/C,[10],95 % of control
Cc1ccc2ccccc2[n+]1[O-],T/C,[1],111 % of control
COc1cccc(Sc2ccc([N+](=O)[O-])c3no[n+]([O-])c23)c1,T/C,"endpoint: median survival time, dose: 1.85 mg/kg/injection, schedule: Q01DX005 (ip), vehicle: saline with Tween-80",102 % of control
same,T/C,"endpoint: median survival time, dose: 1.87 mg/kg/injection, schedule: Q01DX005 (ip), vehicle: saline with Tween-80",106 % of control
same,T/C,"endpoint: median survival time, dose: 3.75 mg/kg/injection, schedule: Q01DX005 (ip), vehicle: saline with Tween-80",108 % of control and 109 % of control
same,T/C,"endpoint: median survival time, dose: 7.5 mg/kg/injection, schedule: Q01DX005 (ip), vehicle: saline with Tween-80",107 % of control and 111 % of control
same,T/C,"endpoint: median survival time, dose: 15.0 mg/kg/injection, schedule: Q01DX005 (ip), vehicle: saline with Tween-80",108 % of control
same,T/C,"endpoint: median survival time, dose: 15.0 mg/kg/injection, schedule: Q01DX009 (ip), vehicle: saline with Tween-80",102 % of control and 104 % of control
same,T/C,"endpoint: median survival time, dose: 30.0 mg/kg/injection, schedule: Q01DX005 (ip), vehicle: saline with Tween-80",102 % of control and 109 % of control
same,T/C,"endpoint: median survival time, dose: 30.0 mg/kg/injection, schedule: Q01DX009 (ip), vehicle: saline with Tween-80",101 % of control and 103 % of control
same,T/C,"endpoint: median survival time, dose: 60.0 mg/kg/injection, schedule: Q01DX009 (ip), vehicle: saline with Tween-80",96 % of control and 108 % of control
same,T/C,"endpoint: median survival time, dose: 120.0 mg/kg/injection, schedule: Q01DX009 (ip), vehicle: saline with Tween-80",100 % of control
CC(=O)Nc1ccc(Br)cn1,T/C,[4],97 % of control
same,T/C,[11],105 % of control
same,T/C,[5],102 % of control
O=c1n(CCCl)c(=O)n(CCCl)c(=O)n1CCCl,T/C,[12],101 % of control
same,T/C,[6],100 % of control
same,T/C,[8],101 % of control
CN1CCN(CCCN2C(=O)C3CC=CCC3C2=O)CC1 (configuration not stated),T/C,[13],102 % of control
same,T/C,[14],93 % of control
O=C(Sc1nc2ccccc2s1)c1ccccc1,T/C,[13],95 % of control
same,T/C,[14],97 % of control
same,T/C,"endpoint: mean survival time, dose: 400.0 mg/kg/injection, schedule: Q01DX001 (ip), vehicle: saline",115 % of control
O=[N+]([O-])c1ccc(N/N=C\c2ccc3ccccc3n2)cc1,T/C,"endpoint: mean survival time, dose: 100.0 mg/kg/injection, schedule: Q04DX003 (ip), vehicle: saline",106 % of control
same,T/C,"endpoint: mean survival time, dose: 200.0 mg/kg/injection, schedule: Q04DX003 (ip), vehicle: saline",109 % of control
same,T/C,"endpoint: mean survival time, dose: 400.0 mg/kg/injection, schedule: Q04DX003 (ip), vehicle: saline",101 % of control
CCCSCC(CSCCC)(CSCCC)CSCCC,T/C,[4],107 % of control
same,T/C,[11],111 % of control
same,T/C,[5],101 % of control
O=[N+]([O-])c1ccc(O/N=C(\CN2CCOCC2)c2ccc(Cl)cc2)c([N+](=O)[O-])c1,T/C,[7],94 % of control
same,T/C,[9],86 % of control
same,T/C,[10],90 % of control
Nc1ncnc2c1nc(Br)n2C1OC(CO)C(O)C1O (configuration not stated),T/C,[1],95 % of control
same,T/C,[2],98 % of control
same,T/C,[3],98 % of control
C#CC(C)(C)OCC(CCl)OC(N)=O (configuration not stated),T/C,"endpoint: mean survival time, dose: 25.0 mg/kg/injection, schedule: Q01DX009 (ip), vehicle: saline with Tween-80",97 % of control
same,T/C,[12],97 % of control
same,T/C,[6],100 % of control
same,T/C,[8],102 % of control
COc1cc(C=C(C(C)=O)C(C)=O)ccc1O,T/C,[12],98 % of control
same,T/C,[6],101 % of control
same,T/C,[8],98 % of control
CCCC(=O)OCc1ccc(Cl)c(Cl)c1,T/C,[12],97 % of control
same,T/C,[6],92 % of control
same,T/C,[7],91 % of control
same,T/C,[9],87 % of control
CNC(=S)NNC(=O)C(=O)NNC(=S)NC,T/C,[4],98 % of control
same,T/C,[11],98 % of control
same,T/C,[5],97 % of control
NC1=NC(=O)CC(=O)N1,T/C,[4],102 % of control
same,T/C,[11],103 % of control
CC(=O)Oc1ccc(OC(C)=O)c2c1C(=O)C=CC2=O,T/C,"endpoint: mean survival time, dose: 0.78 mg/kg/injection, schedule: Q04DX002 (ip), vehicle: alcohol",92 % of control
same,T/C,"endpoint: mean survival time, dose: 3.12 mg/kg/injection, schedule: Q04DX002 (ip), vehicle: alcohol",86 % of control
O=S(=O)(c1cccc(N=C=S)c1)c1cccc(N=C=S)c1,T/C,"endpoint: median survival time, dose: 6.25 mg/kg/injection, schedule: Q01DX009 (ip), vehicle: Klucel (hydroxypropylcellulose) (HPC)",101 % of control
same,T/C,"endpoint: median survival time, dose: 12.5 mg/kg/injection, schedule: Q01DX009 (ip), vehicle: Klucel (hydroxypropylcellulose) (HPC)",109 % of control
same,T/C,"endpoint: median survival time, dose: 25.0 mg/kg/injection, schedule: Q01DX009 (ip), vehicle: Klucel (hydroxypropylcellulose) (HPC)",118 % of control
Nc1ccc(OCc2ccc(C(=O)Nc3cccc(S(=O)(=O)F)c3)cc2)c(Cl)c1,T/C,"endpoint: mean survival time, dose: 100.0 mg/kg/injection, schedule: Q01DX009 (ip), vehicle: saline sonified",91 % of control
same,T/C,"endpoint: mean survival time, dose: 200.0 mg/kg/injection, schedule: Q01DX009 (ip), vehicle: saline sonified",95 % of control
same,T/C,"endpoint: mean survival time, dose: 400.0 mg/kg/injection, schedule: Q01DX009 (ip), vehicle: saline sonified",93 % of control
CCCCNS(=O)(=O)c1cn(CCCC)c(=O)[nH]c1=O,T/C,"endpoint: mean survival time, dose: 37.5 mg/kg/injection, schedule: Q01DX001 (ip), vehicle: saline with Tween-80",100 % of control
same,T/C,"endpoint: mean survival time, dose: 150.0 mg/kg/injection, schedule: Q01DX001 (ip), vehicle: saline with Tween-80",96 % of control
same,T/C,"endpoint: mean survival time, dose: 175.0 mg/kg/injection, schedule: Q01DX001 (ip), vehicle: saline with Tween-80",100 % of control
C=C1CC2(OC1=O)C(=O)N(C)c1ccc(I)cc12 (configuration not stated),T/C,"endpoint: mean survival time, dose: 6.25 mg/kg/injection, schedule: Q01DX009 (ip), vehicle: saline",100 % of control and 104 % of control
same,T/C,"endpoint: mean survival time, dose: 12.5 mg/kg/injection, schedule: Q01DX009 (ip), vehicle: saline",100 % of control and 112 % of control
same,T/C,"endpoint: mean survival time, dose: 25.0 mg/kg/injection, schedule: Q01DX009 (ip), vehicle: saline",117 % of control and 102 % of control
same,T/C,"endpoint: mean survival time, dose: 50.0 mg/kg/injection, schedule: Q01DX009 (ip), vehicle: saline",105 % of control
N#CC(C#N)=Cc1ccc(Cl)cc1,T/C,"endpoint: mean survival time, dose: 25.0 mg/kg/injection, schedule: Q04DX003 (ip), vehicle: saline with Tween-80",89 % of control
same,T/C,"endpoint: mean survival time, dose: 50.0 mg/kg/injection, schedule: Q04DX003 (ip), vehicle: saline with Tween-80",101 % of control
same,T/C,[7],86 % of control and 98 % of control
